# Reference: ChEMBL document CHEMBL1201862, “PubChem BioAssay data set” (2004)
#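 In this assay, cells in 96-well plates receive the compound at five concentrations for 48 hours. Endpoints are linearly interpolated between the surrounding concentrations. At the GI50, growth is halved.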 Activity calls are given as the source filed them. Rule as the data show it: active = GI50 up to about 1.1 µM and inactive = higher.
# Assays:
# Test in all cases: inhibition of tumour cell growth, NCI panel, 48 h
# NCI-H460 = tested on: NCI-H460
# ACHN = tested on: ACHN
# OVCAR-8 = tested on: OVCAR-8
# IGROV-1 = tested on: IGROV-1
# MDA-MB-435 = tested on: MDA-MB-435
# OVCAR-3 = tested on: OVCAR-3
# U-251 = tested on: U-251
# MCF7 = tested on: MCF7
# HCT-116 = tested on: HCT-116
# HCT-15 = tested on: HCT-15
# T47D = tested on: T47D
# SNB-19 = tested on: SNB-19
# HOP-62 = tested on: HOP-62
# SF-295 = tested on: SF-295
# SN12C = tested on: SN12C
# HL-60 = tested on: HL-60
# NCI-H226 = tested on: NCI-H226
# A549 = tested on: A549
# SK-OV-3 = tested on: SK-OV-3
# EKVX = tested on: EKVX
# SF-539 = tested on: SF-539
# OVCAR-5 = tested on: OVCAR-5
# NCI-H522 = tested on: NCI-H522
# A498 = tested on: A498
# M14 = tested on: M14
# SK-MEL-2 = tested on: SK-MEL-2
# MDA-N = tested on: MDA-N
# UACC-62 = tested on: UACC-62
# SF-268 = tested on: SF-268
# SK-MEL-28 = tested on: SK-MEL-28
# HT-29 = tested on: HT-29
# NCI/ADR-RES = tested on: NCI/ADR-RES
# KM12 = tested on: KM12
# MDA-MB-231 = tested on: MDA-MB-231
# CCRF-CEM = tested on: CCRF-CEM
# MOLT-4 = tested on: MOLT-4
# LOX IMVI = tested on: LOX IMVI
# SNB-75 = tested on: SNB-75
# UO-31 = tested on: UO-31
# SK-MEL-5 = tested on: SK-MEL-5
# Malme-3M = tested on: Malme-3M
# UACC-257 = tested on: UACC-257
# PC-3 = tested on: PC-3
# TK-10 = tested on: TK-10
# K562 = tested on: K562
# HOP-92 = tested on: HOP-92
# SR = tested on: SR
# RXF 393 = tested on: RXF 393
# HCC 2998 = tested on: HCC 2998
# SW-620 = tested on: SW-620
# COLO 205 = tested on: COLO 205
# DU-145 = tested on: DU-145
# OVCAR-4 = tested on: OVCAR-4
# Hs-578T = tested on: Hs-578T
# NCI-H23 = tested on: NCI-H23
# 786-0 = tested on: 786-0
# CAKI-1 = tested on: CAKI-1
# RPMI-8226 = tested on: RPMI-8226
# BT-549 = tested on: BT-549
smiles,measurement,setting,value
CSC(=S)Nc1cccc(C)n1,GI50,NCI-H460,> 100 µM (inactive)
same,GI50,ACHN,> 100 µM (inactive)
same,GI50,OVCAR-8,> 100 µM (inactive)
same,GI50,IGROV-1,> 100 µM (inactive)
same,GI50,MDA-MB-435,> 100 µM (inactive)
same,GI50,OVCAR-3,52.4 µM (inactive)
same,GI50,U-251,> 100 µM (inactive)
same,GI50,MCF7,> 100 µM (inactive)
same,GI50,HCT-116,> 100 µM (inactive)
same,GI50,HCT-15,> 100 µM
same,GI50,T47D,> 100 µM (inactive)
same,GI50,SNB-19,> 100 µM (inactive)
same,GI50,HOP-62,> 100 µM (inactive)
same,GI50,SF-295,> 100 µM (inactive)
same,GI50,SN12C,> 100 µM (inactive)
same,GI50,HL-60,> 100 µM (inactive)
same,GI50,NCI-H226,> 100 µM (inactive)
same,GI50,A549,> 100 µM (inactive)
same,GI50,SK-OV-3,> 100 µM (inactive)
same,GI50,EKVX,> 100 µM (inactive)
same,GI50,SF-539,> 100 µM (inactive)
same,GI50,OVCAR-5,> 100 µM (inactive)
same,GI50,NCI-H522,> 100 µM (inactive)
same,GI50,A498,> 100 µM (inactive)
same,GI50,M14,> 100 µM (inactive)
same,GI50,SK-MEL-2,> 100 µM (inactive)
same,GI50,MDA-N,> 100 µM (inactive)
same,GI50,UACC-62,> 100 µM (inactive)
same,GI50,SF-268,> 100 µM (inactive)
same,GI50,SK-MEL-28,> 100 µM (inactive)
same,GI50,HT-29,> 100 µM (inactive)
same,GI50,NCI/ADR-RES,> 100 µM (inactive)
same,GI50,KM12,> 100 µM (inactive)
same,GI50,MDA-MB-231,> 100 µM (inactive)
same,GI50,CCRF-CEM,> 100 µM (inactive)
same,GI50,MOLT-4,> 100 µM (inactive)
same,GI50,LOX IMVI,> 100 µM (inactive)
same,GI50,SNB-75,> 100 µM (inactive)
same,GI50,UO-31,> 100 µM (inactive)
same,GI50,SK-MEL-5,76.6 µM (inactive)
same,GI50,Malme-3M,> 100 µM (inactive)
same,GI50,UACC-257,> 100 µM (inactive)
same,GI50,PC-3,> 100 µM (inactive)
same,GI50,TK-10,> 100 µM (inactive)
same,GI50,K562,> 100 µM (inactive)
same,GI50,HOP-92,> 100 µM (inactive)
same,GI50,SR,> 100 µM (inactive)
same,GI50,RXF 393,> 100 µM (inactive)
same,GI50,HCC 2998,> 100 µM (inactive)
same,GI50,SW-620,> 100 µM (inactive)
same,GI50,COLO 205,> 100 µM (inactive)
same,GI50,DU-145,> 100 µM (inactive)
same,GI50,OVCAR-4,> 100 µM (inactive)
same,GI50,Hs-578T,> 100 µM (inactive)
same,GI50,NCI-H23,> 100 µM (inactive)
same,GI50,786-0,> 100 µM (inactive)
same,GI50,CAKI-1,> 100 µM (inactive)
same,GI50,RPMI-8226,> 100 µM (inactive)
Oc1nc2cc3nc(O)c(O)nc3cc2nc1O,GI50,NCI-H460,> 100 µM (inactive)
same,GI50,ACHN,> 100 µM (inactive)
same,GI50,OVCAR-8,> 100 µM (inactive)
same,GI50,IGROV-1,> 100 µM (inactive)
same,GI50,MDA-MB-435,> 100 µM (inactive)
same,GI50,OVCAR-3,> 100 µM (inactive)
same,GI50,U-251,> 100 µM (inactive)
same,GI50,MCF7,> 100 µM (inactive)
same,GI50,BT-549,> 100 µM (inactive)
same,GI50,HCT-116,> 100 µM (inactive)
same,GI50,HCT-15,> 100 µM
same,GI50,SNB-19,> 100 µM (inactive)
same,GI50,SF-295,> 100 µM (inactive)
same,GI50,SN12C,> 100 µM (inactive)
same,GI50,HL-60,> 100 µM (inactive)
same,GI50,NCI-H226,> 100 µM (inactive)
same,GI50,A549,> 100 µM (inactive)
same,GI50,SK-OV-3,> 100 µM (inactive)
same,GI50,EKVX,> 100 µM (inactive)
same,GI50,SF-539,> 100 µM (inactive)
same,GI50,OVCAR-5,> 100 µM (inactive)
same,GI50,NCI-H522,> 100 µM (inactive)
same,GI50,A498,> 100 µM (inactive)
same,GI50,M14,> 100 µM (inactive)
same,GI50,SK-MEL-2,> 100 µM (inactive)
same,GI50,UACC-62,> 100 µM (inactive)
same,GI50,SF-268,> 100 µM (inactive)
same,GI50,SK-MEL-28,> 100 µM (inactive)
same,GI50,HT-29,> 100 µM (inactive)
same,GI50,NCI/ADR-RES,> 100 µM (inactive)
same,GI50,KM12,> 100 µM (inactive)
same,GI50,MDA-MB-231,> 100 µM (inactive)
same,GI50,CCRF-CEM,> 100 µM (inactive)
same,GI50,MOLT-4,> 100 µM (inactive)
same,GI50,LOX IMVI,> 100 µM (inactive)
same,GI50,SNB-75,> 100 µM (inactive)
same,GI50,UO-31,> 100 µM (inactive)
same,GI50,SK-MEL-5,> 100 µM (inactive)
same,GI50,Malme-3M,> 100 µM (inactive)
same,GI50,UACC-257,> 100 µM (inactive)
same,GI50,PC-3,> 100 µM (inactive)
same,GI50,TK-10,> 100 µM (inactive)
same,GI50,K562,> 100 µM (inactive)
same,GI50,SR,> 10 µM (inactive)
same,GI50,RXF 393,> 100 µM (inactive)
same,GI50,HCC 2998,> 100 µM (inactive)
same,GI50,SW-620,> 100 µM (inactive)
same,GI50,COLO 205,> 100 µM (inactive)
same,GI50,DU-145,> 100 µM (inactive)
same,GI50,Hs-578T,> 100 µM (inactive)
same,GI50,NCI-H23,> 100 µM (inactive)
same,GI50,786-0,> 100 µM (inactive)
same,GI50,CAKI-1,> 100 µM (inactive)
same,GI50,RPMI-8226,> 100 µM (inactive)
CN1C=COC1N=C1CCCCC1 (centres undefined),GI50,NCI-H460,> 100 µM (inactive)
same,GI50,ACHN,> 100 µM (inactive)
same,GI50,OVCAR-8,> 100 µM (inactive)
same,GI50,IGROV-1,> 100 µM (inactive)
same,GI50,MDA-MB-435,> 100 µM (inactive)
same,GI50,OVCAR-3,> 100 µM (inactive)
same,GI50,U-251,> 100 µM (inactive)
same,GI50,MCF7,> 100 µM (inactive)
same,GI50,HCT-116,> 100 µM (inactive)
same,GI50,HCT-15,> 100 µM
same,GI50,T47D,> 100 µM (inactive)
same,GI50,SNB-19,4.02 µM (inactive)
same,GI50,HOP-62,> 100 µM (inactive)
same,GI50,SF-295,> 100 µM (inactive)
same,GI50,SN12C,> 100 µM (inactive)
same,GI50,HL-60,> 100 µM (inactive)
same,GI50,NCI-H226,> 100 µM (inactive)
same,GI50,A549,> 100 µM (inactive)
same,GI50,SK-OV-3,> 100 µM (inactive)
same,GI50,EKVX,> 100 µM (inactive)
same,GI50,SF-539,> 100 µM (inactive)
same,GI50,OVCAR-5,> 100 µM (inactive)
same,GI50,NCI-H522,> 100 µM (inactive)
same,GI50,A498,> 100 µM (inactive)
same,GI50,M14,> 100 µM (inactive)
same,GI50,SK-MEL-2,> 100 µM (inactive)
same,GI50,MDA-N,> 100 µM (inactive)
same,GI50,UACC-62,> 100 µM (inactive)
same,GI50,SF-268,> 100 µM (inactive)
same,GI50,SK-MEL-28,> 100 µM (inactive)
same,GI50,HT-29,> 100 µM (inactive)
same,GI50,NCI/ADR-RES,> 100 µM (inactive)
same,GI50,KM12,> 100 µM (inactive)
same,GI50,MDA-MB-231,> 100 µM (inactive)
same,GI50,CCRF-CEM,> 100 µM (inactive)
same,GI50,MOLT-4,> 100 µM (inactive)
same,GI50,LOX IMVI,> 100 µM (inactive)
same,GI50,SNB-75,41.4 µM (inactive)
same,GI50,UO-31,50.9 µM (inactive)
same,GI50,SK-MEL-5,> 100 µM (inactive)
same,GI50,Malme-3M,> 100 µM (inactive)
same,GI50,PC-3,> 100 µM (inactive)
same,GI50,TK-10,> 100 µM (inactive)
same,GI50,K562,> 100 µM (inactive)
same,GI50,HOP-92,75.7 µM (inactive)
same,GI50,SR,> 100 µM (inactive)
same,GI50,RXF 393,> 100 µM (inactive)
same,GI50,HCC 2998,> 100 µM (inactive)
same,GI50,SW-620,3.3 µM (inactive)
same,GI50,COLO 205,> 100 µM (inactive)
same,GI50,DU-145,> 100 µM (inactive)
same,GI50,OVCAR-4,> 100 µM (inactive)
same,GI50,Hs-578T,> 100 µM (inactive)
same,GI50,NCI-H23,> 100 µM (inactive)
same,GI50,786-0,> 100 µM (inactive)
same,GI50,CAKI-1,3.74 µM (inactive)
same,GI50,RPMI-8226,> 100 µM (inactive)
